Experiments:
Nav 1.7 = Nav 1.7 (Homo sapiens (Human), UniProt Q15858); assay: Nav 1.7 in vitro PX assay (PatchXpress whole cell voltage clamp); assay type: cell-based; conditions: 293 cells, human Nav1.7, partially inactivated state; read-out: Nav1.7 PX IC50 IP
In short: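 Partially inactivated channel state (holding potential for 20–50% inactivation) probed in human Nav1.7-transfected 293 cells by automated patch clamp, test pulse −10 mV for 20 msec.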

Nav 1.5 = Nav 1.5 (Homo sapiens (Human), UniProt Q14524); assay: Nav 1.5 in vitro PX assay (PatchXpress whole cell voltage clamp); assay type: cell-based; conditions: 293 cells stably transfected with Nav 1.5; second part of table; read-out: Nav1.5 PX IC50
Sequence of Nav 1.5 (Q14524 whole entry): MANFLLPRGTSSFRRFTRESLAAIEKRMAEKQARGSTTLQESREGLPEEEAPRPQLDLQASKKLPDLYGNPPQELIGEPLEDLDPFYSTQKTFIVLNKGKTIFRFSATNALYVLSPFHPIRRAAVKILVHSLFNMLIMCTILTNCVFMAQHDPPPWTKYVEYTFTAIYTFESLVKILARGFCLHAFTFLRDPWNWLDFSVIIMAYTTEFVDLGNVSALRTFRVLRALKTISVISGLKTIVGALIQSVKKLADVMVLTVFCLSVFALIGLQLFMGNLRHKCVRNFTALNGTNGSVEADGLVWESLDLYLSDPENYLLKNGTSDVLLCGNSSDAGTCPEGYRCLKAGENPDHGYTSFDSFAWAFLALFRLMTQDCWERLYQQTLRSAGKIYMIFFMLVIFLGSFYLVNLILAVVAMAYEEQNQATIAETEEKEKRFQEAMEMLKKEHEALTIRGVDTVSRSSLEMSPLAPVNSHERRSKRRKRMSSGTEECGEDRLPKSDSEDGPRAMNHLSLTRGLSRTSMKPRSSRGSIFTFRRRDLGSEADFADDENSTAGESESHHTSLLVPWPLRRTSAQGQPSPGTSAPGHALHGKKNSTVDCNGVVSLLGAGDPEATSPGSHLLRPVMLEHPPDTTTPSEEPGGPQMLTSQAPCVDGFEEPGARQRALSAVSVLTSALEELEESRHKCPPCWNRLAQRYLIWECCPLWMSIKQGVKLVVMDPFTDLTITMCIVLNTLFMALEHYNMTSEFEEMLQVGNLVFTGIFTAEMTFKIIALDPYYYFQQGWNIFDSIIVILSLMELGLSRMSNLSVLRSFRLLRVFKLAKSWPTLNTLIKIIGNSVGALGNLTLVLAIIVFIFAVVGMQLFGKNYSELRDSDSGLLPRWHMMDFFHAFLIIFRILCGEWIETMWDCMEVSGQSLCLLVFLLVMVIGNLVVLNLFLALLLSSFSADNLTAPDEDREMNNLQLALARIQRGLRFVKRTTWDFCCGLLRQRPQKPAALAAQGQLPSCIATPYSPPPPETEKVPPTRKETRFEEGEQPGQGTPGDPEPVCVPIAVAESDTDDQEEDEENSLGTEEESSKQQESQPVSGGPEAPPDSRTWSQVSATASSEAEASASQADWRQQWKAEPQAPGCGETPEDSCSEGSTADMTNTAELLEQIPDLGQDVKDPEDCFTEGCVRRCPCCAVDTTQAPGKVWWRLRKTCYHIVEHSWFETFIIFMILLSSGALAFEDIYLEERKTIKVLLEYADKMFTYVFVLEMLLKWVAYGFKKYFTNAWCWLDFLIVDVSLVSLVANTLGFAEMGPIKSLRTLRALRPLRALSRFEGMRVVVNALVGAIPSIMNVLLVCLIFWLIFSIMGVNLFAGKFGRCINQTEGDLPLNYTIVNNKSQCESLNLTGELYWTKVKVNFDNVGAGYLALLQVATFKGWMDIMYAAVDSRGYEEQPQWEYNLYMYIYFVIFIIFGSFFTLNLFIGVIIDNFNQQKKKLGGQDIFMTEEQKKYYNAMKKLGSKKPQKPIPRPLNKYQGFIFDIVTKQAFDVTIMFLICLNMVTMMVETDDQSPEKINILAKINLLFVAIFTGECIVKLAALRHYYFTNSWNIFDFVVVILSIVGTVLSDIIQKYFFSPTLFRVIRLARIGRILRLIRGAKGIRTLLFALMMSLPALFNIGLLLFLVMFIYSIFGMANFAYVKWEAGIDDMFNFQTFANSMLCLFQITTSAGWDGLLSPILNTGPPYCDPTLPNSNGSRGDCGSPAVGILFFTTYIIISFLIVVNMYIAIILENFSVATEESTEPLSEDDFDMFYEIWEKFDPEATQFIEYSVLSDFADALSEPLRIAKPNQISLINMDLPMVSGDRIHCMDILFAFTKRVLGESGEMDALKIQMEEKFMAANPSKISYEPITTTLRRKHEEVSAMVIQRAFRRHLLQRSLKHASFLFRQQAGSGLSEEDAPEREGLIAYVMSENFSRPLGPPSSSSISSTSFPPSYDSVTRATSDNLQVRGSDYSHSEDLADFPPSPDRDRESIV
Method: Nav 1.5 In Vitro PX Assay
293 cells stably transfected with Nav 1.5 were recorded in whole cell voltage clamp mode with the PatchXpress automated electrophysiology system according the manufacturer's specifications (Molecular Devices, LLC, Sunnyvale, Calif.). Cells were held at a holding potential of −50 mV to inactivate sodium channels. To elicit sodium currents the voltage was changed to −120 mV to recover a portion of the channels, followed by delivery of test pulses of 20 msec duration to 0 mV, at 0.1 Hz. A single concentration of test compound was applied to cells for a duration of 5 minutes. Peak sodium current was measured at the end of the compound addition period to determine percent inhibition. A minimum of two cells were tested per concentration. IC50 curves were fitted to percent inhibition as a function of concentration.

Sequence of Nav 1.7 (Q15858 whole entry): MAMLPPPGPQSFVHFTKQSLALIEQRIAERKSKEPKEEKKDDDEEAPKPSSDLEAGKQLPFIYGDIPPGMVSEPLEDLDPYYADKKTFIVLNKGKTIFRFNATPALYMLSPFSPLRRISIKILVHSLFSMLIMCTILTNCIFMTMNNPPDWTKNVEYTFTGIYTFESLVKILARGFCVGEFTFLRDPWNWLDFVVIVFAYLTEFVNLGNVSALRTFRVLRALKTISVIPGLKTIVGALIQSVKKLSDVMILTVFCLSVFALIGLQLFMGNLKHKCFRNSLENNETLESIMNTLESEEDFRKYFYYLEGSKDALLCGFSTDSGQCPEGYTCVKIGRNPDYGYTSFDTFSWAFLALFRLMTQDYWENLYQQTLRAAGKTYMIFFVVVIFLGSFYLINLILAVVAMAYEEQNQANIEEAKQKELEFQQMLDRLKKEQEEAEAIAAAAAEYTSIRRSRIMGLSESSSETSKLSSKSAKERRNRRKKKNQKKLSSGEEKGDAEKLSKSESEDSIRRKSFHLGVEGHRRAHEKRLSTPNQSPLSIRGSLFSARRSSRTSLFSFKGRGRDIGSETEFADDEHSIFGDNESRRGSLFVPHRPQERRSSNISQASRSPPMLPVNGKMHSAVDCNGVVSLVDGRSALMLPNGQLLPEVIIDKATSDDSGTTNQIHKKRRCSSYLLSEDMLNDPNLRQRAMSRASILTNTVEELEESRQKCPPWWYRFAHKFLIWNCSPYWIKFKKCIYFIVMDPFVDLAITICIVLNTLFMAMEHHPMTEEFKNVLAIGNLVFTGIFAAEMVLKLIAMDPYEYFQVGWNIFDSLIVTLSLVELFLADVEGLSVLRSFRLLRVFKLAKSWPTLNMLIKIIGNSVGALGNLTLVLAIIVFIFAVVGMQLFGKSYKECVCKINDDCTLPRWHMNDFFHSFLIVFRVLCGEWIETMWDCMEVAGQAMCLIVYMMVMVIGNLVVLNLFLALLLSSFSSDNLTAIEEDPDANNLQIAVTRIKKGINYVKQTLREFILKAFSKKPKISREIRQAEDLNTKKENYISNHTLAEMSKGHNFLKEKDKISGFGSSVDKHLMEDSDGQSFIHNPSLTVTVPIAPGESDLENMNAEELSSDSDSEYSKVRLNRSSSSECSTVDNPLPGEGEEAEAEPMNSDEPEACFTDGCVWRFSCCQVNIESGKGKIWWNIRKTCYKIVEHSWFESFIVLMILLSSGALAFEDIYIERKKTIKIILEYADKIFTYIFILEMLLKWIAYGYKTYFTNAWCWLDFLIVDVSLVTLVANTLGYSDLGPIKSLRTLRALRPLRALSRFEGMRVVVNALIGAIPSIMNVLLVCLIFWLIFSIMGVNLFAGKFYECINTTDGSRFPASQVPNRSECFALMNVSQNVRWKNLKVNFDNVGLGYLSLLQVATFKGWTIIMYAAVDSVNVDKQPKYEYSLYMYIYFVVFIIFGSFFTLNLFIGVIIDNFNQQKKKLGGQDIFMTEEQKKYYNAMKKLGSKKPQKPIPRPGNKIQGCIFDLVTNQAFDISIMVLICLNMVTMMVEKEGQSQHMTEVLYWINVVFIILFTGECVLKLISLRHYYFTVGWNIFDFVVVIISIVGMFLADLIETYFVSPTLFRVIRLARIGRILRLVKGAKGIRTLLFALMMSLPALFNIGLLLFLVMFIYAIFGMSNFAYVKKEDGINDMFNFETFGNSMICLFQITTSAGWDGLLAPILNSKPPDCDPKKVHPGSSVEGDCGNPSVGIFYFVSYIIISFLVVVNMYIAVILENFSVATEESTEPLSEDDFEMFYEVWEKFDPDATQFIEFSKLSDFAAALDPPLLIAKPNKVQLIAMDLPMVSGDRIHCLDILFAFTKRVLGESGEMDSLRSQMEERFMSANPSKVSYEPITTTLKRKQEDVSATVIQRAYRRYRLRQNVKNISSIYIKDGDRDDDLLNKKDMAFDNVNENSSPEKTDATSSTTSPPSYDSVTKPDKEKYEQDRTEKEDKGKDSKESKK

IC50 (Nav 1.7) | Compound | IC50 (Nav 1.5)
407 nM | COc1cc(C(F)(F)F)ccc1-c1ccnc2cc(S(=O)(=O)Nc3nccs3)c(F)cc12 [Example 319, 6-FLUORO-4-(2-METHOXY-4-(TRIFLUOROMETHYL)PHENYL)-N-(THIAZOL-2-YL)QUINOLINE-7-SULFONAMIDE 2,2,2-TRIFLUOROACETATE] | 2790 nM
155 nM | COc1ccccc1-c1ccnc2cc(S(=O)(=O)Nc3ncns3)ccc12 [Example 320, 4-(2-METHOXYPHENYL)-N-(1,2,4-THIADIAZOL-5-YL)QUINOLINE-7-SULFONAMIDE 2,2,2-TRIFLUOROACETATE] | > 30000 nM
251 nM | COc1ccc(-c2cccc(F)c2)cc1-c1ccnc2cc(S(=O)(=O)Nc3ccncn3)ccc12 [Example 321, 4-(3′-FLUORO-4-METHOXY-[1,1′-BIPHENYL]-3-YL)-N-(PYRIMIDIN-4-YL)QUINOLINE-7-SULFONAMIDE] | > 30000 nM
333 nM | Cc1cc(Cl)ccc1-c1ccnc2cc(S(=O)(=O)Nc3ncns3)ccc12 [Example 322] | > 30000 nM
662 nM | COc1ccccc1-c1c(C#N)cnc2cc(S(=O)(=O)Nc3nccs3)ccc12 [Example 324, 3-CYANO-4-(2-METHOXYPHENYL)-N-(THIAZOL-2-YL)QUINOLINE-7-SULFONAMIDE] | > 30000 nM
660 nM | COc1cc(C(F)(F)F)ccc1-c1ccnc2cc(S(=O)(=O)Nc3nccs3)c(C)cc12 [Example 326, 4-(2-METHOXY-4-(TRIFLUOROMETHYL)PHENYL)-6-METHYL-N-(THIAZOL-2-YL)QUINOLINE-7-SULFONAMIDE] | 2500 nM
118 nM | COc1cc(C#N)ccc1-c1cccc2cc(S(=O)(=O)Nc3ncns3)ccc12 [Example 330] | > 30000 nM
28 nM | COc1cc(-c2cccc(F)c2)c(Cl)cc1-c1nccc2cc(S(=O)(=O)Nc3nncs3)ccc12 [Example 332, 1-(2-CHLORO-3′-FLUORO-5-METHOXY-[1,1′-BIPHENYL]-4-YL)-N-(1,3,4-THIADIAZOL-2-YL)ISOQUINOLINE-6-SULFONAMIDE] | 20700 nM
75 nM | COc1cc(-c2cccc(F)c2)c(Cl)cc1-c1nccc2cc(S(=O)(=O)Nc3ccncn3)ccc12 [Example 333, 1-(2-CHLORO-3′-FLUORO-5-METHOXY-[1,1′-BIPHENYL]-4-YL)-N-(PYRIMIDIN-4-YL)ISOQUINOLINE-6-SULFONAMIDE] | 20300 nM
52 nM | COc1cc(-c2cccc(F)c2)c(Cl)cc1-c1nccc2cc(S(=O)(=O)Nc3ccon3)ccc12 [Example 335, 1-(2-CHLORO-3′-FLUORO-5-METHOXY-[1,1′-BIPHENYL]-4-YL)-N-(ISOXAZOL-3-YL)ISOQUINOLINE-6-SULFONAMIDE] | > 30000 nM
156 nM | COc1cc(Cl)c(C#N)cc1-c1nccc2cc(S(=O)(=O)Nc3ncns3)ccc12 [Example 336, 1-(4-CHLORO-5-CYANO-2-METHOXYPHENYL)-N-(1,2,4-THIADIAZOL-5-YL)ISOQUINOLINE-6-SULFONAMIDE] | > 30000 nM
388 nM | COc1cc(Cl)c(C#N)cc1-c1nccc2cc(S(=O)(=O)Nc3nncs3)ccc12 [Example 337, 1-(4-CHLORO-5-CYANO-2-METHOXYPHENYL)-N-(1,3,4-THIADIAZOL-2-YL)ISOQUINOLINE-6-SULFONAMIDE] | > 30000 nM
29 nM | COc1cc(-c2cc(F)cc(F)c2)c(C#N)cc1-c1nccc2cc(S(=O)(=O)Nc3nncs3)ccc12 [Example 338, 1-(2-CYANO-3′,5′-DIFLUORO-5-METHOXY-[1,1′-BIPHENYL]-4-YL)-N-(1,3,4-THIADIAZOL-2-YL)ISOQUINOLINE-6-SULFONAMIDE] | > 30000 nM
31 nM | COc1cc(-c2cccc(C(F)(F)F)c2)c(C#N)cc1-c1nccc2cc(S(=O)(=O)Nc3nncs3)ccc12 [Example 339, 1-(2-CYANO-5-METHOXY-3′-(TRIFLUOROMETHYL)-[1,1′-BIPHENYL]-4-YL)-N-(1,3,4-THIADIAZOL-2-YL)ISOQUINOLINE-6-SULFONAMIDE] | > 30000 nM
56 nM | COc1cc(-c2cccc(F)c2)c(C#N)cc1-c1nccc2cc(S(=O)(=O)Nc3ncns3)ccc12 [Example 340, 1-(2-CYANO-3′-FLUORO-5-METHOXY-[1,1′-BIPHENYL]-4-YL)-N-(1,2,4-THIADIAZOL-5-YL)ISOQUINOLINE-6-SULFONAMIDE] | > 30000 nM
69 nM | COc1cc(-c2cccc(F)c2)c(C#N)cc1-c1nccc2cc(S(=O)(=O)Nc3nncs3)ccc12 [Example 341, 1-(2-CYANO-3′-FLUORO-5-METHOXY-[1,1′-BIPHENYL]-4-YL)-N-(1,3,4-THIADIAZOL-2-YL)ISOQUINOLINE-6-SULFONAMIDE] | > 30000 nM
122 nM | COc1cc(-c2cccc(F)c2)c(C#N)cc1-c1nccc2cc(S(=O)(=O)Nc3ccon3)ccc12 [Example 342, 1-(2-CYANO-3′-FLUORO-5-METHOXY-[1,1′-BIPHENYL]-4-YL)-N-(ISOXAZOL-3-YL)ISOQUINOLINE-6-SULFONAMIDE] | > 30000 nM
145 nM | COc1cc(-c2cc(F)cc(F)c2)c(C#N)cc1-c1nccc2cc(S(=O)(=O)Nc3ccon3)ccc12 [Example 343, 1-(2-CYANO-3′,5′-DIFLUORO-5-METHOXY-[1,1′-BIPHENYL]-4-YL)-N-(ISOXAZOL-3-YL)ISOQUINOLINE-6-SULFONAMIDE] | > 30000 nM
34 nM | COc1ccc(-c2cccc(C(F)(F)F)c2)cc1-c1nccc2cc(S(=O)(=O)Nc3nncs3)ccc12 [Example 344, 1-(4-METHOXY-3′-(TRIFLUOROMETHYL)-[1,1′-BIPHENYL]-3-YL)-N-(1,3,4-THIADIAZOL-2-YL)ISOQUINOLINE-6-SULFONAMIDE] | > 30000 nM
75 nM | COc1ccc(-c2cccc(F)c2)cc1-c1nccc2cc(S(=O)(=O)Nc3nncs3)ccc12 [Example 345, 1-(3′-FLUORO-4-METHOXY-[1,1′-BIPHENYL]-3-YL)-N-(1,3,4-THIADIAZOL-2-YL)ISOQUINOLINE-6-SULFONAMIDE] | > 30000 nM
132 nM | COc1ccc(Cl)cc1-c1nccc2cc(S(=O)(=O)Nc3ncns3)ccc12 [Example 346, 1-(5-CHLORO-2-METHOXYPHENYL)-N-(1,2,4-THIADIAZOL-5-YL)ISOQUINOLINE-6-SULFONAMIDE] | > 30000 nM
40 nM | COc1ccc(-c2cccc(F)c2)cc1-c1nccc2cc(S(=O)(=O)Nc3ncns3)ccc12 [Example 347, 1-(3′-FLUORO-4-METHOXY-[1,1′-BIPHENYL]-3-YL)-N-(1,2,4-THIADIAZOL-5-YL)ISOQUINOLINE-6-SULFONAMIDE] | > 30000 nM
102 nM | COc1ccc(-c2cccc(F)c2)cc1-c1nccc2cc(S(=O)(=O)Nc3ccncn3)ccc12 [Example 348, 1-(3′-FLUORO-4-METHOXY-[1,1′-BIPHENYL]-3-YL)-N-(PYRIMIDIN-4-YL)ISOQUINOLINE-6-SULFONAMIDE] | > 30000 nM
38 nM | COc1ccc(-c2cccc(C(F)(F)F)c2)cc1-c1nccc2cc(S(=O)(=O)Nc3ccncn3)ccc12 [Example 349, 1-(4-METHOXY-3′-(TRIFLUOROMETHYL)-[1,1′-BIPHENYL]-3-YL)-N-(PYRIMIDIN-4-YL)ISOQUINOLINE-6-SULFONAMIDE] | > 30000 nM

Compound | IC50 (Nav 1.7) | IC50 (Nav 1.5)
COc1cc(C(F)(F)F)ccc1-c1n[nH]c(=O)c2cc(S(=O)(=O)Nc3nccs3)ccc12 [Example 293, 1-(2-METHOXY-4-(TRIFLUOROMETHYL)PHENYL)-4-OXO-N-(THIAZOL-2-YL)-3,4-DIHYDROPHTHALAZINE-6-SULFONAMIDE] | 150 nM | > 30000 nM

From patent US9012443B2 (Amgen Inc., priority 2011, dated 2015)
